By IC50 is commonly meant the concentration that inhibits the measured activity by half.

Where a name gives a salt, the structure may show the parent alone.

The test system of the first assay is Plasmodium falciparum 3D7 strain. Nature of the assay: P. falciparum 3D7 asexual blood stage assay (SYBR green readout). Format: cell-based. The following applies: Plasmodium falciparum, 3D7, Erythrocyte, 72 h. Summed up:
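P. falciparum 3D7 in A+ erythrocytes (5% haematocrit, 0.5% parasitaemia) exposed 72 h at 37 °C under 1% O2/3% CO2 to 20-point 1.5-fold titrations, 50,000–15 nM in 0.5% DMSO. SYBR green lysis overnight, fluorescence 485/528 nm; normalized to mefloquine and DMSO, EC50 from biphasic two-site fit.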
With `C[C@@H]1C[C@H](N2C(=N)N[C@](C)(c3cccc(NC(=O)c4ccc(C(F)(F)F)nn4)c3Cl)CC2=O)CCO1` (relative stereo) [Example 59, N-(2-Chloro-3-{(4S)-2-imino-4-methyl-1-[(2R*,4R*)-2-methyl-tetrahydropyran-4-yl]-6-oxo-hexahydropyrimidin-4-yl]phenyl)-6-(trifluoromethyl)pyridazine-3-carboxamide hydrochloride], the IC50 was 114 nM. As to `C[C@@H]1C[C@H](N2C(=N)N[C@](C)(c3cccc(NC(=O)c4ccc(F)c(C#N)c4)c3Cl)CC2=O)CCO1` (relative stereo) [Example 116, N-(2-Chloro-3-{(4S)-2-imino-4-methyl-1-[(2R* ,4R* )-2-methyl-tetrahydropyran-4-yl]-6-oxo-hexahydropyrimidin-4-yl]phenyl)-3-cyano-4-fluorobenzamide trifluoroacetic acid salt], the IC50 is 89 nM. Molecule `C[C@@H]1C[C@H](N2C(=N)N[C@](C)(c3cccc(NC(=O)c4ccncc4)c3Cl)CC2=O)CCO1` (relative stereo) [Example 5, N-(2-Chloro-3-{(4S)-2-imino-4-methyl-1-[(2R*,4R*)-2-methyl-tetrahydropyran-4-yl]-6-oxo-hexahydropyrimidin-4-yl]phenyl)-pyridine-4-carboxamide hydrochloride] displayed an IC50 of 285 nM. Consider `C[C@@]1(c2cccc(NC(=O)c3ccccc3)c2Cl)CC(=O)N(C2CCOCC2)C(=N)N1` [Example 1, N-{2-Chloro-3-[(4S)-2-imino-4-methyl-6-oxo-1-(tetrahydropyran-4-yl)hexahydropyrimidin-4-yl]-phenyl]benzamide trifluoroacetic acid salt], for which 227 nM corresponded to half-maximal inhibition (IC50). `COc1cncc(C(=O)Nc2cccc([C@]3(C)CC(=O)N([C@@H]4CCO[C@H](C)C4)C(=N)N3)c2Cl)n1` (relative stereo) [Example 68, N-(2-Chloro-3-{(4S)-2-imino-4-methyl-1-[(2R*,4R*)-2-methyl-tetrahydropyran-4-yl]-6-oxo-hexahydropyrimidin-4-yl}phenyl)-6-methoxypyrazine-2-carboxamide hydrochloride] came in with an IC50 of 11 nM. Regarding `C[C@@H]1C[C@H](N2C(=N)N[C@](C)(c3cccc(NC(=O)c4cccnc4C4CC4)c3Cl)CC2=O)CCO1` (relative stereo) [Example 57, N-(2-Chloro-3-{(4S)-2-imino-4-methyl-1-[(2R*,4R*)-2-methyl-tetrahydropyran-4-yl]-6-oxo-hexahydropyrimidin-4-yl]phenyl)-2-cyclopropylpyridine-3-carboxamide hydrochloride], the IC50 was found to be 476 nM.

`C[C@@]1(c2cccc(NC(=O)c3ccc(Cl)cn3)c2Cl)CC(=O)N(C2CCOCC2)C(=N)N1` [Example 2, 5-Chloro-N-{2-chloro-3-[(4S)-2-imino-4-methyl-6-oxo-1-(tetrahydropyran-4-yl)hexahydro-pyrimidin-4-yl]phenyl}pyridine-2-carboxamide trifluoroacetic acid salt] came in with an IC50 of 1120 nM.

As to `C[C@@H]1C[C@H](N2C(=N)N[C@](C)(c3cccc(NC(=O)c4ccc(OCC(F)(F)F)nc4)c3Cl)CC2=O)CCO1` (relative stereo) [Example 58, N-(2-Chloro-3-{(4S)-2-imino-4-methyl-1-[(2R*,4R*)-2-methyl-tetrahydropyran-4-yl]-6-oxo-hexahydropyrimidin-4-yl]phenyl)-6-(2,2,2-trifluoroethoxy)pyridine-3-carboxamide hydrochloride], the IC50 amounted to 438 nM. `C[C@@H]1C[C@H](N2C(=N)N[C@](C)(c3cccc(NC(=O)c4ccccc4S(C)(=O)=O)c3Cl)CC2=O)CCO1` (relative stereo) [Example 81, N-(2-Chloro-3-{(4S)-2-imino-4-methyl-1-[(2R*,4R*)-2-methyl-tetrahydropyran-4-yl]-6-oxo-hexahydropyrimidin-4-yl}phenyl)-2-(methylsulfonyl)benzamide trifluoroacetic acid salt] displayed an IC50 of 182 nM.

With `C[C@@H]1C[C@H](N2C(=N)N[C@](C)(c3cccc(NC(=O)c4ccncc4C(F)(F)F)c3Cl)CC2=O)CCO1` (relative stereo) [Example 89, N-(2-Chloro-3-{(4S)-2-imino-4-methyl-1-[(2R*,4R*)-2-methyl-tetrahydropyran-4-yl]-6-oxo-hexahydropyrimidin-4-yl}phenyl)-3-(trifluoromethyl)pyridine-4-carboxamide trifluoroacetic acid salt], the IC50 turned out to be 373 nM. In turn, `C[C@@H]1C[C@H](N2C(=N)N[C@](C)(c3cccc(NC(=O)c4cccnn4)c3Cl)CC2=O)CCO1` (relative stereo) [Example 19, N-(2-Chloro-3-{(4S)-2-imino-4-methyl-1-[(2R*,4R*)-2-methyl-tetrahydropyran-4-yl]-6-oxo-hexahydropyrimidin-4-yl]phenyl)-pyridazine-3-carboxamide hydrochloride] showed an IC50 of 31 nM. With `C[C@@H]1C[C@H](N2C(=N)NC(C)(c3cccc(NC(=O)c4ccc(Cl)cc4F)c3Cl)CC2=O)CCO1` (relative stereo) [Example 67, 4-Chloro-N-(2-chloro-3-{(4S)-2-imino-4-methyl-1-[(2R*,4R*)-2-methyltetrahydropyran-4-yl]-6-oxo-hexahydropyrimidin-4-yl}phenyl)-2-fluorobenzamide hydrochloride], it took 26 nM to reach half-maximal inhibition (IC50). In the case of `C[C@@H]1C[C@H](N2C(=N)N[C@](C)(c3cccc(NC(=O)c4ccc(Cl)c(C#N)c4)c3Cl)CC2=O)CCO1` (relative stereo) [Example 117, 4-Chloro-N-(2-chloro-3-{(4S)-2-imino-4-methyl-1-[(2R*,4R*)-2-methyltetrahydropyran-4-yl]-6-oxo-hexahydropyrimidin-4-yl}phenyl)-3-cyanobenzamide trifluoroacetic acid salt], the IC50 stood at 17 nM.

As for `C[C@@H]1C[C@H](N2C(=N)N[C@](C)(c3cccc(NC(=O)c4ccc(F)c(Cl)c4F)c3Cl)CC2=O)CCO1` (relative stereo) [Example 71, 3-Chloro-N-(2-chloro-3-{(4S)-2-imino-4-methyl-1-[(2R*,4R*)-2-methyltetrahydropyran-4-yl]-6-oxo-hexahydropyrimidin-4-yl}phenyl)-2,4-difluorobenzamide hydrochloride], the IC50 turned out to be 26 nM.

Turning to `Cc1cn(-c2cccc(C(=O)Nc3cccc([C@]4(C)CC(=O)N([C@@H]5CCO[C@H](C)C5)C(=N)N4)c3Cl)c2)cn1` (relative stereo) [Example 110, N-(2-Chloro-3-{(4S)-2-imino-4-methyl-1-[(2R*,4R*)-2-methyl-tetrahydropyran-4-yl]-6-oxo-hexahydropyrimidin-4-yl}phenyl)-3-(4-methylimidazol-1-yl)-benzamide hydrochloride], it took 288 nM to reach half-maximal inhibition (IC50). Same read-out and setting: then `C[C@@H]1C[C@H](N2C(=N)N[C@](C)(c3cccc(NC(=O)c4cncc(C5CC5)c4)c3Cl)CC2=O)CCO1` (relative stereo) [Example 104, N-(2-Chloro-3-{(4S)-2-imino-4-methyl-1-[(2R*,4R*)-2-methyl-tetrahydropyran-4-yl]-6-oxo-hexahydropyrimidin-4-yl}phenyl)-5-cyclopropylpyridine-3-carboxamide hydrochloride], with 19 nM; and `C[C@@H]1C[C@H](N2C(=N)N[C@](C)(c3cccc(NC(=O)c4cn(C)c5ccccc45)c3Cl)CC2=O)CCO1` (relative stereo) [Example 27, N-(2-Chloro-3-{(4S)-2-imino-4-methyl-1-[(2R*,4R*)-2-methyl-tetrahydropyran-4-yl]-6-oxo-hexahydropyrimidin-4-yl}phenyl)-1-methylindole-3-carboxamide trifluoroacetic acid salt], with 29 nM; and `Cc1cc(Cl)cc(C(=O)Nc2cccc([C@]3(C)CC(=O)N([C@@H]4CCO[C@H](C)C4)C(=N)N3)c2Cl)c1` (relative stereo) [Example 22, 3-Chloro-N-(2-chloro-3-{(4S)-2-imino-4-methyl-1-[(2R*,4R*)-2-methyltetrahydropyran-4-yl]-6-oxo-hexahydropyrimidin-4-yl}phenyl)-5-methylbenzamide hydrochloride], with 9 nM. For `C[C@@H]1C[C@H](N2C(=N)N[C@](C)(c3cccc(NC(=O)c4cnc5ccncc5c4)c3Cl)CC2=O)CCO1` (relative stereo) [Example 43, N-(2-Chloro-3-{(4S)-2-imino-4-methyl-1-[(2R*,4R*)-2-methyl-tetrahydropyran-4-yl]-6-oxo-hexahydropyrimidin-4-yl]phenyl)-1,6-naphthyridine-3-carboxamide trifluoroacetic acid salt], the IC50 is 92 nM. `C[C@@H]1C[C@H](N2C(=N)N[C@](C)(c3cccc(NC(=O)c4cccnc4)c3Cl)CC2=O)CCO1` (relative stereo) [Example 7, N-(2-Chloro-3-{(4S)-2-imino-4-methyl-1-[(2R*,4R*)-2-methyl-tetrahydropyran-4-yl]-6-oxo-hexahydropyrimidin-4-yl}phenyl)-pyridine-3-carboxamide hydrochloride] showed an IC50 of 29 nM.

The same assay, now with this note: Plasmodium falciparum, Erythrocyte; P. falciparum 3D7 in human erythrocytes, 72 h incubation, SYBR green fluorescence; read-out: IC50.
As to `C[C@@H]1C[C@H](N2C(=N)N[C@](C)(c3cccc(NC(=O)c4c(F)cc(F)cc4F)c3Cl)CC2=O)CCO1` (relative stereo) [Example 101, N-(2-Chloro-3-{(4S)-2-imino-4-methyl-1-[(2,R*,4R*)-2-methyl-tetrahydropyran-4-yl]-6-oxo-hexahydropyrimidin-4-yl]phenyl)-2,4,6-trifluorobenzamide hydrochloride], the IC50 was 85 nM. Take `C[C@@H]1C[C@H](N2C(=N)N[C@](C)(c3cccc(NC(=O)c4cccc5c4OCO5)c3Cl)CC2=O)CCO1` (relative stereo) [Example 86, N-(2-Chloro-3-{(4S)-2-imino-4-methyl-1-[(2R*,4R*)-2-methyl-tetrahydropyran-4-yl]-6-oxo-hexahydropyrimidin-4-yl]phenyl)-1,3-benzodioxole-4-carboxamide trifluoroacetic acid salt]: the IC50 was 10 nM.

These data come from patent US20220289685A1, “ANTIMALARIAL HEXAHYDROPYRIMIDINE ANALOGUES” (UCB BIOPHARMA SRL, priority 2019, published 2022).
